Measured values taken from US9695155B2, “Herbicidal substituted pyrimidinyloxy benzene compounds” (E. I. DU PONT DE NEMOURS AND COMPANY, priority 2013, dated 2017).

How the values were obtained:
soybean = assay: Test E preemergence; assay type: in vivo, Glycine max; conditions: for Soybean plant response rating: scale 0 to 100 (0 no effect, 100 complete control); for Plant response rating, Soybean: scale 0 to 100, 0 no effect, 100 complete control
Procedure, shortened: (§1)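 Response was scored visually on a 0-100 scale (100 = complete control) versus controls after 14 to 21 days in the greenhouse. Test chemicals, formulated with surfactant in a non-phytotoxic solvent mixture, had been applied preemergence to seeds in silt loam soil or postemergence to 1- to 4-leaf plants in potting medium.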

johnsongrass = assay: Test E preemergence; assay type: in vivo, Sorghum halepense; conditions: for Johnsongrass plant response rating: scale 0 to 100 (0 no effect, 100 complete control); for Plant response rating, Johnsongrass: scale 0 to 100, 0 no effect, 100 complete control
Procedure, shortened: as §1

ragweed = assay: Test E preemergence; assay type: in vivo, Ambrosia elatior; conditions: for Ragweed plant response rating: scale 0 to 100 (0 no effect, 100 complete control); for Plant response rating, Ragweed: scale 0 to 100, 0 no effect, 100 complete control
Procedure, shortened: as §1

arrowleaf sida = assay: Test E preemergence; assay type: in vivo, Sida rhombifolia; conditions: for Arrowleaf Sida plant response rating: scale 0 to 100 (0 no effect, 100 complete control); for Plant response rating, Arrowleaf Sida: scale 0 to 100, 0 no effect, 100 complete control
Procedure, shortened: as §1

Italian ryegrass = assay: Test E preemergence; assay type: in vivo, Lolium multiflorum; conditions: for Ryegrass, Italian plant response rating: scale 0 to 100 (0 no effect, 100 complete control); for Plant response rating, Ryegrass, Italian: scale 0 to 100, 0 no effect, 100 complete control
Procedure, shortened: as §1

dayflower [1] = assay: Test E preemergence; assay type: in vivo, Commelina virginica; conditions: for Dayflower, VA plant response rating: scale 0 to 100 (0 no effect, 100 complete control); for Plant response rating, Dayflower, VA: scale 0 to 100, 0 no effect, 100 complete control
Procedure, shortened: as §1

field bindweed [2] = assay: Test E preemergence; assay type: in vivo, Convolvulus arvensis; conditions: for Field Bindweed plant response rating: scale 0 to 100 (0 no effect, 100 complete control); for Plant response rating, Field Bindweed: scale 0 to 100, 0 no effect, 100 complete control
Procedure, shortened: as §1

hairy beggarticks = assay: Test E preemergence; assay type: in vivo, Bidens pilosa; conditions: for Beggarticks plant response rating: scale 0 to 100 (0 no effect, 100 complete control); for Plant response rating, Beggarticks: scale 0 to 100, 0 no effect, 100 complete control
Procedure, shortened: as §1

wild poinsettia = assay: Test E postemergence; assay type: in vivo, Euphorbia heterophylla
Procedure, shortened: as §1

[3] = tested on: waterhemp_RES1 (ALS & Triazine resistant common waterhemp); assay: Test E postemergence; assay type: in vivo, Amaranthus rudis
Procedure, shortened: as §1

[4] = tested on: waterhemp_RES2 (ALS & HPPD resistant common waterhemp); assay: Test E postemergence; assay type: in vivo, Amaranthus rudis
Procedure, shortened: as §1

waterhemp = assay: Test E postemergence; assay type: in vivo, Amaranthus rudis
Procedure, shortened: as §1

sandbur = assay: Test E postemergence; assay type: in vivo, Cenchrus echinatus
Procedure, shortened: as §1

dayflower [5] = assay: Test E postemergence; assay type: in vivo, Commelina virginica
Procedure, shortened: as §1

field bindweed [6] = assay: Test E postemergence; assay type: in vivo, Convolvulus arvensis
Procedure, shortened: as §1

rice = assay: Test C flooded paddy test; assay type: in vivo, Oryza sativa; conditions: Flood, scale 0 to 100 (0 no effect, 100 complete control), 13 to 15 days
Procedure, shortened: (§2)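 Compound was added to standing water 3 cm above soil, flood maintained, and plants held in a greenhouse before visual scoring against controls at 13 to 15 days.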

ducksalad = assay: Test C flooded paddy test; assay type: in vivo, Heteranthera limosa; conditions: Flood, scale 0 to 100 (0 no effect, 100 complete control), 13 to 15 days
Procedure, shortened: as §2

[7] = Postemergence, 62 g ai/ha, scale 0 to 100
[8] = Postemergence, 125 g ai/ha, scale 0 to 100
[9] = Postemergence, 31 g ai/ha, scale 0 to 100
[10] = Postemergence, 250 g ai/ha, scale 0 to 100
[11] = postemergence, 16 g ai/ha, scale 0 to 100, 0 no effect, 100 complete control

## N#Cc1cccc(Oc2ncc(Cl)cn2)c1-n1cc(Cl)cn1 [Compound 72]
soybean; 16 g ai/ha
  Soybean plant response rating: 0
soybean; 31 g ai/ha
  Soybean plant response rating: 10
soybean; 62 g ai/ha
  Soybean plant response rating: 25
soybean; 125 g ai/ha
  Plant response rating, Soybean: 70
soybean; 250 g ai/ha
  Plant response rating, Soybean: 90
johnsongrass; 16 g ai/ha
  Johnsongrass plant response rating: 0
johnsongrass; 31 g ai/ha
  Johnsongrass plant response rating: 0
johnsongrass; 62 g ai/ha
  Johnsongrass plant response rating: 40
johnsongrass; 125 g ai/ha
  Plant response rating, Johnsongrass: 95
johnsongrass; 250 g ai/ha
  Plant response rating, Johnsongrass: 98
ragweed; 16 g ai/ha
  Ragweed plant response rating: 0
ragweed; 31 g ai/ha
  Ragweed plant response rating: 0
ragweed; 62 g ai/ha
  Ragweed plant response rating: 5
ragweed; 125 g ai/ha
  Plant response rating, Ragweed: 50
ragweed; 250 g ai/ha
  Plant response rating, Ragweed: 95
Arrowleaf sida; 16 g ai/ha, preemergence
  Arrowleaf Sida plant response rating: 20
Arrowleaf sida; 31 g ai/ha, preemergence
  Arrowleaf Sida plant response rating: 40
Arrowleaf sida; Preemergence, 62 g ai/ha
  Plant response rating, Arrowleaf Sida: 40
Arrowleaf sida; preemergence, 125 g ai/ha
  Plant response rating, Arrowleaf Sida: 100
Arrowleaf sida; preemergence, 250 g ai/ha
  Plant response rating, Arrowleaf Sida: 100
Italian ryegrass; 16 g ai/ha
  Ryegrass, Italian plant response rating: 0
Italian ryegrass; 31 g ai/ha
  Ryegrass, Italian plant response rating: 15
Italian ryegrass; 62 g ai/ha
  Ryegrass, Italian plant response rating: 20
Italian ryegrass; 125 g ai/ha
  Plant response rating, Ryegrass, Italian: 35
Italian ryegrass; 250 g ai/ha
  Plant response rating, Ryegrass, Italian: 75
Dayflower [1]; 16 g ai/ha
  Dayflower, VA plant response rating: 0
Dayflower [1]; 31 g ai/ha
  Dayflower, VA plant response rating: 0
Dayflower [1]; 62 g ai/ha
  Dayflower, VA plant response rating: 35
Dayflower [1]; 125 g ai/ha
  Plant response rating, Dayflower, VA: 65
Dayflower [1]; 250 g ai/ha
  Plant response rating, Dayflower, VA: 95
Field bindweed [2]; 16 g ai/ha
  Field Bindweed plant response rating: 0
Field bindweed [2]; 31 g ai/ha
  Field Bindweed plant response rating: 5
Field bindweed [2]; 62 g ai/ha
  Field Bindweed plant response rating: 10
Field bindweed [2]; 125 g ai/ha
  Plant response rating, Field Bindweed: 60
Field bindweed [2]; 250 g ai/ha
  Plant response rating, Field Bindweed: 95
Hairy beggarticks; 16 g ai/ha, preemergence
  Beggarticks plant response rating: 0
Hairy beggarticks; 31 g ai/ha, preemergence
  Beggarticks plant response rating: 0
Hairy beggarticks; Preemergence, 62 g ai/ha
  Plant response rating, Beggarticks: 5
Hairy beggarticks; preemergence, 125 g ai/ha
  Plant response rating, Beggarticks: 5
Hairy beggarticks; preemergence, 250 g ai/ha
  Plant response rating, Beggarticks: 30
Wild poinsettia; [7]
  Plant response rating, Poinsettia, Wild: 55
Wild poinsettia; [8]
  Plant response rating, Poinsettia, Wild: 60
[3]; [7]
  Plant response rating, Waterhemp_RES1: 75
[3]; [8]
  Plant response rating, Waterhemp_RES1: 95
[4]; [7]
  Plant response rating, Waterhemp_RES2: 80
[4]; [8]
  Plant response rating, Waterhemp_RES2: 90
waterhemp; [7]
  Plant response rating, Waterhemp: 80
waterhemp; [8]
  Plant response rating, Waterhemp: 98
sandbur; [7]
  Plant response rating, Sandbur: 0
sandbur; [8]
  Plant response rating, Sandbur: 0
Dayflower [5]; [7]
  Plant response rating, Dayflower, VA: 50
Dayflower [5]; [8]
  Plant response rating, Dayflower, VA: 60
Field bindweed [6]; [7]
  Plant response rating, Field Bindweed: 70
Field bindweed [6]; [8]
  Plant response rating, Field Bindweed: 80

## N#Cc1cnn(-c2c(C#N)cccc2Oc2ncc(Cl)cn2)c1 [Compound 200]
rice; 31 g ai/ha
  Plant response rating, Rice: 0
rice; 62 g ai/ha
  Plant response rating, Rice: 0
rice; 125 g ai/ha
  Plant response rating, Rice: 0
rice; 250 g ai/ha
  Plant response rating, Rice: 0
ducksalad; 31 g ai/ha
  Plant response rating, Ducksalad: 0
ducksalad; 62 g ai/ha
  Plant response rating, Ducksalad: 0
ducksalad; 125 g ai/ha
  Plant response rating, Ducksalad: 20
ducksalad; 250 g ai/ha
  Plant response rating, Ducksalad: 80
soybean; 31 g ai/ha
  Soybean plant response rating: 25
soybean; 62 g ai/ha
  Soybean plant response rating: 35
soybean; 125 g ai/ha
  Plant response rating, Soybean: 65
soybean; 250 g ai/ha
  Plant response rating, Soybean: 90
johnsongrass; 31 g ai/ha
  Johnsongrass plant response rating: 15
johnsongrass; 62 g ai/ha
  Johnsongrass plant response rating: 25
johnsongrass; 125 g ai/ha
  Plant response rating, Johnsongrass: 30
johnsongrass; 250 g ai/ha
  Plant response rating, Johnsongrass: 75
ragweed; 31 g ai/ha
  Ragweed plant response rating: 0
ragweed; 62 g ai/ha
  Ragweed plant response rating: 80
ragweed; 125 g ai/ha
  Plant response rating, Ragweed: 80
ragweed; 250 g ai/ha
  Plant response rating, Ragweed: 95
Arrowleaf sida; 16 g ai/ha, preemergence
  Arrowleaf Sida plant response rating: 20
Arrowleaf sida; 31 g ai/ha, preemergence
  Arrowleaf Sida plant response rating: 20
Arrowleaf sida; 62 g ai/ha, preemergence
  Arrowleaf Sida plant response rating: 70
Arrowleaf sida; preemergence, 125 g ai/ha
  Plant response rating, Arrowleaf Sida: 100
Arrowleaf sida; preemergence, 250 g ai/ha
  Plant response rating, Arrowleaf Sida: 100
Italian ryegrass; 31 g ai/ha
  Ryegrass, Italian plant response rating: 0
Italian ryegrass; 62 g ai/ha
  Ryegrass, Italian plant response rating: 20
Italian ryegrass; 125 g ai/ha
  Plant response rating, Ryegrass, Italian: 60
Italian ryegrass; 250 g ai/ha
  Plant response rating, Ryegrass, Italian: 80
Dayflower [1]; 16 g ai/ha
  Dayflower, VA plant response rating: 0
Dayflower [1]; 31 g ai/ha
  Dayflower, VA plant response rating: 35
Dayflower [1]; 62 g ai/ha
  Dayflower, VA plant response rating: 65
Dayflower [1]; 125 g ai/ha
  Plant response rating, Dayflower, VA: 65
Dayflower [1]; 250 g ai/ha
  Plant response rating, Dayflower, VA: 85
Field bindweed [2]; 16 g ai/ha
  Field Bindweed plant response rating: 5
Field bindweed [2]; 31 g ai/ha
  Field Bindweed plant response rating: 10
Field bindweed [2]; 62 g ai/ha
  Field Bindweed plant response rating: 40
Field bindweed [2]; 125 g ai/ha
  Plant response rating, Field Bindweed: 70
Field bindweed [2]; 250 g ai/ha
  Plant response rating, Field Bindweed: 95
Hairy beggarticks; 16 g ai/ha, preemergence
  Beggarticks plant response rating: 0
Hairy beggarticks; 31 g ai/ha, preemergence
  Beggarticks plant response rating: 10
Hairy beggarticks; 62 g ai/ha, preemergence
  Beggarticks plant response rating: 35
Hairy beggarticks; preemergence, 125 g ai/ha
  Plant response rating, Beggarticks: 75
Hairy beggarticks; preemergence, 250 g ai/ha
  Plant response rating, Beggarticks: 95
Wild poinsettia; [9]
  Plant response rating, Poinsettia, Wild: 80
Wild poinsettia; [7]
  Plant response rating, Poinsettia, Wild: 70
Wild poinsettia; [8]
  Plant response rating, Poinsettia, Wild: 90
Wild poinsettia; [10]
  Plant response rating, Poinsettia, Wild: 90
Wild poinsettia; [11]
  Plant response rating, Poinsettia, Wild: 50
[3]; [9]
  Plant response rating, Waterhemp_RES1: 80
[3]; [7]
  Plant response rating, Waterhemp_RES1: 90
[3]; [8]
  Plant response rating, Waterhemp_RES1: 100
[3]; [10]
  Plant response rating, Waterhemp_RES1: 100
[3]; [11]
  Plant response rating, Waterhemp_RES1: 70
[4]; [9]
  Plant response rating, Waterhemp_RES2: 90
[4]; [7]
  Plant response rating, Waterhemp_RES2: 90
[4]; [8]
  Plant response rating, Waterhemp_RES2: 100
[4]; [10]
  Plant response rating, Waterhemp_RES2: 100
[4]; [11]
  Plant response rating, Waterhemp_RES2: 90
waterhemp; [9]
  Plant response rating, Waterhemp: 90
waterhemp; [7]
  Plant response rating, Waterhemp: 95
waterhemp; [8]
  Plant response rating, Waterhemp: 95
waterhemp; [10]
  Plant response rating, Waterhemp: 100
waterhemp; [11]
  Plant response rating, Waterhemp: 80
sandbur; [9]
  Plant response rating, Sandbur: 0
sandbur; [7]
  Plant response rating, Sandbur: 0
sandbur; [8]
  Plant response rating, Sandbur: 0
sandbur; [10]
  Plant response rating, Sandbur: 10
sandbur; [11]
  Plant response rating, Sandbur: 0
Dayflower [5]; [9]
  Plant response rating, Dayflower, VA: 25
Dayflower [5]; [7]
  Plant response rating, Dayflower, VA: 40
Dayflower [5]; [8]
  Plant response rating, Dayflower, VA: 60
Dayflower [5]; [10]
  Plant response rating, Dayflower, VA: 70
Dayflower [5]; [11]
  Plant response rating, Dayflower, VA: 15
Field bindweed [6]; [9]
  Plant response rating, Field Bindweed: 70
Field bindweed [6]; [7]
  Plant response rating, Field Bindweed: 90
Field bindweed [6]; [8]
  Plant response rating, Field Bindweed: 95
Field bindweed [6]; [10]
  Plant response rating, Field Bindweed: 95
Field bindweed [6]; [11]
  Plant response rating, Field Bindweed: 70
